The term pIC50 denotes the IC50 on a negative log10 scale, so that one unit is a factor of ten.

pIC50: −log10 of the molar value. Where a name gives a salt, the structure may show the parent alone.

This is an account of results in EP0766694B1 (ZAMBON GROUP S.p.A., priority 1994, dated 1995).

For experiment [1], the target named is T1, NEP (Rattus norvegicus, UniProt P07861).
T1 sequence (P07861 1-750): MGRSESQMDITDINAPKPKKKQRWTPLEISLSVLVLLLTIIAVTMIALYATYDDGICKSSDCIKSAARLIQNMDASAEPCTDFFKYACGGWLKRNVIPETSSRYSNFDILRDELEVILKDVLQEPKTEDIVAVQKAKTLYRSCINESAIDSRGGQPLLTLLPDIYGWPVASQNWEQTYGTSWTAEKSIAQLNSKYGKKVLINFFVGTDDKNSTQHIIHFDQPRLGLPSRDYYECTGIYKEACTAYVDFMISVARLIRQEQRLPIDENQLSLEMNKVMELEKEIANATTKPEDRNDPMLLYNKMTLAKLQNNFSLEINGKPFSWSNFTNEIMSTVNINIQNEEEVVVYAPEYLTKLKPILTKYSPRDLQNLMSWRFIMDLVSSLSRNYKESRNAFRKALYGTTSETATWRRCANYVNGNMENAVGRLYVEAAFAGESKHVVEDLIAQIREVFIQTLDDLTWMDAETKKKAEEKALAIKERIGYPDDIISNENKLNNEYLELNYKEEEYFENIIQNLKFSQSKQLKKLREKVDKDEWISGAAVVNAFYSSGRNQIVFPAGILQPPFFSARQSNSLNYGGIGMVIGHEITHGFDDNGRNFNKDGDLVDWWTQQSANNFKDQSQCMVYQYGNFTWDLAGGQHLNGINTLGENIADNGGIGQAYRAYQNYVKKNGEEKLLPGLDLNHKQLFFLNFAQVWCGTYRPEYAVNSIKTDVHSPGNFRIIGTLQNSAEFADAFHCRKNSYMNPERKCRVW
The experiment can be described thus: NEP-inhibitory activity (inhibition of [3H]Tyr-Gly-Gly formation from [3H][Leu5]-enkephaline in kidney cortex membranes).

Experiment [2] concerns the target T2, ACE (Oryctolagus cuniculus, UniProt P12822).
T2 construct: ACE (250 mU/ml purified by lung rabbit, EC 3.4.15.1 SIGMA); purchased SIGMA; host or cells: rabbit lung
T2 sequence (P12822 34-1310): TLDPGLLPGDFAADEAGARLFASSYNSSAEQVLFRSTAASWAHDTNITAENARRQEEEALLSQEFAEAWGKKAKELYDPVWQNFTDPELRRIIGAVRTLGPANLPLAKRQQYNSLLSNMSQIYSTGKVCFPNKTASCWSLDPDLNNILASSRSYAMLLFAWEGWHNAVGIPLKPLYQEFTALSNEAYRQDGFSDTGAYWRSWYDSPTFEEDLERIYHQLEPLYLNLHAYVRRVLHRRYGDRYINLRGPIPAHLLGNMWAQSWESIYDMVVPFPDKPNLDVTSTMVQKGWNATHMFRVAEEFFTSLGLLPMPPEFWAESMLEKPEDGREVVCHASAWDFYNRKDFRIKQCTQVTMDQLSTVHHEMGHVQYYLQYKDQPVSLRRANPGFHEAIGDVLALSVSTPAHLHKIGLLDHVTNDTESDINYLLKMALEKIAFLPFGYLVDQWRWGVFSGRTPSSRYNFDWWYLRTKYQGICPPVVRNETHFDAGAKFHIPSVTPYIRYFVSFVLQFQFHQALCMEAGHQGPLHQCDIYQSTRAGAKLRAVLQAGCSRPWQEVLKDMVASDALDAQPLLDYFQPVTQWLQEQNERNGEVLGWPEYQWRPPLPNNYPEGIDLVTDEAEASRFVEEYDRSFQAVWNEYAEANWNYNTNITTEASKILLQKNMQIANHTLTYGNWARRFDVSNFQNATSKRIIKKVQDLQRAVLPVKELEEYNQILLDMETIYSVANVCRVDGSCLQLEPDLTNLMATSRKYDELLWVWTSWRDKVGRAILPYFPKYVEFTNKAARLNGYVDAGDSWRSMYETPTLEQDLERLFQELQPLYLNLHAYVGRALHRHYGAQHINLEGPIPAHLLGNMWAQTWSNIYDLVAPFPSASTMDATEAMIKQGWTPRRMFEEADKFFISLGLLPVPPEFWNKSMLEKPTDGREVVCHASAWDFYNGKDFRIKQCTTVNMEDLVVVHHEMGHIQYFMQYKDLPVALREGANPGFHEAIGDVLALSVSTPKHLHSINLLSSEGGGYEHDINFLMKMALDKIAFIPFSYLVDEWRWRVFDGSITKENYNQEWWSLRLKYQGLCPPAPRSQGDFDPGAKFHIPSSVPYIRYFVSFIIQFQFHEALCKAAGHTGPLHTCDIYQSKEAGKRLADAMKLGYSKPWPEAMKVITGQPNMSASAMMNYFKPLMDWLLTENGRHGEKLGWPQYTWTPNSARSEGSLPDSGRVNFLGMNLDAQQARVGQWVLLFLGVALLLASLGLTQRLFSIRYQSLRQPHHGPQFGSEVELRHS
In words: ACE-inhibitory activity (FAPGG hydrolysis, absorbance at 340 nm). Particulars: ACE purified by lung rabbit, FAPGG 0.8 mM, 37°C; compounds of formula I tested in the form of sodium salts. It counts as biochemical. The protocol:
[…] of ACE (250 mU/ml purified by lung rabbit, EC 3.4.15.1 SIGMA) with 50 µl of the compound of formula I or of the reference compounds, were preincubated in thermostated cuvettes at 37°C for 5 minutes.
The reaction was started by adding furylacryloylphenylalanylglycylglycine 0.8 mM (FAPGG-SIGMA).
Contemporaneously, by using a Beckman DU-50 spectrophotometer provided with a program for calculating delta A/minutes and regression coefficients of the enzyme kinetics curves, the absorbance at 340 nm was recorded in continuo for 5 minutes.

In the case of `C[C@H](CS)C(=O)N1CCC[C@H]1C(=O)O` [Captopril, reference compound], the “NEP-inhibitory activity IC50 (nM)” value in experiment [1] (membranes from rat kidney cortex, [3H][Leu5]-enkephaline 15 nM, 20 minutes at 30°C, compounds of formula I tested in the form of sodium salts) is “not active”. For the molecule `CC(C)C[C@H](N[C@@H](CCc1ccccc1)C(=O)O)C(=O)N[C@@H](Cc1ccc(-c2ccccc2)cc1)C(=O)O` [Compound 1, N-[N'-[(1S)-1-carboxy-3-phenyl-propyl]-L-leucyl]-(1.1'-biphenyl-4-yl)-L-alanine disodium salt], the values for the pIC50 in experiment [2] and in experiment [1] were 8.82 and 7.56, respectively. The matching figures for `CC(C)[C@H](N[C@@H](CCc1ccccc1)C(=O)O)C(=O)N[C@@H](Cc1ccc(-c2ccccc2)cc1)C(=O)O` [Compound 10]: 8.70 and 7.39. The matching figures for `O=C(O)[C@H](Cc1ccc(-c2ccccc2)cc1)NC(=O)[C@H](Cc1cccs1)N[C@@H](CCc1ccccc1)C(=O)O` [Compound 15]: 8.74 and 8.00. `CC(C)C[C@H](N[C@@H](CCC(=O)Nc1ccccc1)C(=O)O)C(=O)N[C@@H](Cc1ccc(-c2ccccc2)cc1)C(=O)O` [Compound 17]: the negative logarithm of the IC50 (pIC50) is 8.66 in experiment [2] and 7.57 in experiment [1].

`CC(C)C[C@H](N[C@@H](CC(=O)NCc1ccccc1)C(=O)O)C(=O)N[C@@H](Cc1ccc(-c2ccccc2)cc1)C(=O)O` [Compound 20]: the negative logarithm of the IC50 (pIC50) was 7.82 in experiment [2] and 7.28 in experiment [1].
